The test system of assay [1] is 3T3-L1 Mouse Adipocytes. Description: Free fatty acid levels in cultured 3T3-L1 mouse adipocytes (isoproterenol stimulated). It is filed as cell-based. As to conditions: free fatty acid in medium; 5 μM peptide, 20-22 h pre-incubation then 3 h with 0.1 nM isoproterenol; isoproterenol alone = 100%. A digest of the protocol:
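3T3-L1 cells differentiated 12 days, insulin withdrawn, then peptides added on day 13 at 5 μM (0.1% DMSO) for 20-22 h at 37° C. After 3 h in assay buffer, medium free fatty acids read at 540 nm. Values expressed as percent of 0.1 nM isoproterenol-alone control.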

Assay [2] concerns C2C12 Cells. Kind of assay: Glucose utilization in cultured C2C12 cells (myotubes). As to conditions: glucose concentration in medium relative to untreated cells; 5 μM peptide, 22 h. It is filed as cell-based, mouse. The gist of the method: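 Differentiated mouse myotubes (5 days in 2% horse serum) serum-starved 5 h, then treated 22 h at 37 °C with peptide at 5 μM final (0.1% DMSO) in low-glucose (1 g/L) DMEM. Glucose remaining in medium measured colorimetrically at 570 nm. Expressed as percent of untreated control, from 2–3 experiments in triplicate.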

Assay [3] has as its system H4-IIE Cells. Kind of assay: Glucose production in cultured H4-IIE cells. As to conditions: glucose concentration in medium relative to untreated cells; 5 μM peptide, 24 h. It is filed as cell-based, rat. A digest of the protocol:
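Rat H4-IIE hepatoma cells primed overnight in glucose-free DMEM with 2 mM pyruvate and 10 mM lactate, then treated 24 h at 37 °C with 5 μM peptide (0.1% DMSO; concentration assumes ~2000 Da). Medium glucose measured colorimetrically at 570 nm. Values are percent of untreated-cell glucose production; 0.5-1 nM insulin served as inhibitor reference.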

We go through 44 substances from patent US20220332774A1, “THERAPEUTIC MITOCHONDRIAL PEPTIDES” (priority 2019, published 2022).

As for 81 (MMFPIRLHNSPIRP) [compound 81], the “Percent of Isoproterenol Control Activity” value in assay [1] was determined as 90%. Besides, the “Percent of Control Activity” value is 118% in assay [2] and 115% in assay [3].
Taken in the same sequence, the figures for 82 (MMGITMKKIITNAWAVTMTL) [compound 82] were 98%, 105% and 114%.
As for 83 (MMGMWLVGHYVLSC) [compound 83], the “Percent of Isoproterenol Control Activity” value in assay [1] was found to be 102%. The “Percent of Control Activity” value turned out to be 95% in assay [2] and 109% in assay [3].
Taken in the same sequence, the figures for 84 (MMKGKMKWKVKNRV) [compound 84] were 99%, 95% and 108%.
Taken in the same sequence, the figures for 85 (MMKLRLTPWRLPDPPNHH) [compound 85] were 81%, 88% and 108%.
In the same order, the values of 86 (MMLSWDDIIYGG) [compound 86] are 98%, 87% and 108%.
As for 87 (MMMFVYSAMKN) [compound 87], the “Percent of Isoproterenol Control Activity” value in assay [1] stood at 101%. The “Percent of Control Activity” value in assay [2] came out at 97%; in assay [3], 109%.
In the same order, the values of 88 (MMMTIECLHSHFPH) [compound 88] are 95%, 87% and 112%.
In the same order, the values of 89 (MMNSDSIIPS) [compound 89] are 111%, 112% and 110%.
Taken in the same sequence, the figures for “90 (MMSVWKVAVQTFNCYYYVLQALIN) [compound 90]” were 101%, 97% and 104%.
With 91 (MMTHPTTPLTINTKPP) [compound 91], the “Percent of Isoproterenol Control Activity” value in assay [1] came to 93%. For the same substance, the “Percent of Control Activity” value in assay [2] is listed as 109%; in assay [3] it was 116%.
Taken in the same sequence, the figures for 92 (MMTWSPWKPVATKNVEP) [compound 92] were 99%, 93% and 124%.
In the case of “93 (MMWKTIVVFQLQEHQWPQYAKLTP) [compound 93]”, in assay [1], the “Percent of Isoproterenol Control Activity” value amounted to 96%. Moreover, the “Percent of Control Activity” value is reported as 104% in assay [2] and 120% in assay [3].
In the same order, the values of 95 (MNHIMAKGHDG) [compound 95] are 111%, 92% and 121%.
In the same order, the values of “96 (MNHNQYYQSMLIINNHNSYSNKT) [compound 96]” are 100%, 91% and 130%.
Consider 97 (MNNSSSTVQP) [compound 97], for which the “Percent of Isoproterenol Control Activity” value in assay [1] amounted to 105%. The results for the “Percent of Control Activity” value in assay [2] and in assay [3] were 95% and 122%, respectively.
In the same order, the values of “98 (MNPDQPHHLLLSLYTAIFSKPWW) [compound 98]” are 97%, 91% and 117%.
Taken in the same sequence, the figures for 100 (MPIIRRMSWSP) [compound 100] were 105%, 102% and 123%.
Taken in the same sequence, the figures for “102 (MPLRLEWVQWGVGGWPWVCC) [compound 102]” were 120%, 102% and 108%.
For the substance 103 (MPPKDKIWNLV) [compound 103], the “Percent of Isoproterenol Control Activity” value in assay [1] is 108%. The “Percent of Control Activity” value in assay [2] is listed as 98%; in assay [3] it was 97%.
In the same order, the values of 105 (MPRKCWLYPSRTN) [compound 105] are 91%, 114% and 118%.
Taken in the same sequence, the figures for 106 (MPTNLPTLNST) [compound 106] were 98%, 101% and 107%.
Taken in the same sequence, the figures for “107 (MPTPILIFRSPWSLYSYPT) [compound 107]” were 104%, 110% and 96%.
As to 108 (MQFTLATPKCYGPGA) [compound 108], the “Percent of Isoproterenol Control Activity” value in assay [1] was determined as 102%. The “Percent of Control Activity” value in assay [2] is given as 96%; in assay [3] it was 104%.
Taken in the same sequence, the figures for “109 (MQNPPHSSPHSSPLPRYSYLSPLLY) [compound 109]” were 94%, 95% and 105%.
In the same order, the values of “110 (MQPYRRYRFHPRLSMIYPTLQLM) [compound 110]” are 93%, 110% and 108%.
In the case of 111 (MQRWFFMSLVVVVVRA) [compound 111], the “Percent of Isoproterenol Control Activity” value in assay [1] was 89%. Further, the “Percent of Control Activity” value in assay [2] stood at 101%; in assay [3], 91%.
Taken in the same sequence, the figures for “112 (MQSGVLQSLAVTEIKYCNLL) [compound 112]” were 103%, 93% and 144%.
Taken in the same sequence, the figures for 113 (MQTKSLQSPQ) [compound 113] were 102%, 97% and 134%.
Taken in the same sequence, the figures for 114 (MQWAILGLFVVG) [compound 114] were 76%, 107% and 118%.
As for 116 (MSGVRKEVSLL) [compound 116], the “Percent of Isoproterenol Control Activity” value in assay [1] stood at 90%. The figures for the “Percent of Control Activity” value in assay [2] and in assay [3] were 99% and 123%, respectively.
In the same order, the values of 117 (MSKKIPATTMVLEWS) [compound 117] are 98%, 91% and 121%.
Taken in the same sequence, the figures for 118 (MSLSYLQDSTY) [compound 118] were 98%, 83% and 126%.
Taken in the same sequence, the figures for 119 (MSLTPHILPTMP) [compound 119] were 97%, 109% and 122%.
As for 120 (MSMPVLGWQWG) [compound 120], in assay [1], the “Percent of Isoproterenol Control Activity” value is 95%. For the same substance, the entries for the “Percent of Control Activity” value in assay [2] and in assay [3] were 98% and 118%, respectively.
Taken in the same sequence, the figures for 121 (MSNMKTFSSA) [compound 121] were 118%, 99% and 95%.
Taken in the same sequence, the figures for 122 (MSNNMAFSTFKG) [compound 122] were 113%, 103% and 97%.
In the same order, the values of “123 (MSRNHSFCLNYMPIRFSLILFVVTH) [compound 123]” are 104%, 88% and 106%.
Consider 124 (MSSAWIIWFRLFSI) [compound 124], for which the “Percent of Isoproterenol Control Activity” value in assay [1] is given as 113%. The entries for the “Percent of Control Activity” value in assay [2] and in assay [3] were 96% and 97%, respectively.
125 (MSSDEFANTMPV) [compound 125]: the “Percent of Isoproterenol Control Activity” value in assay [1] was found to be 115%. Further, the results for the “Percent of Control Activity” value in assay [2] and in assay [3] were 109% and 96%, respectively.
Taken in the same sequence, the figures for 126 (MSTHLPNYHTNLSYR) [compound 126] were 108%, 110% and 87%.
In the same order, the values of “127 (MSTINQQVIITLTVNPTQACS) [compound 127]” are 104%, 109% and 88%.
In the same order, the values of 128 (MSWSNIEVVNPIVDMDS) [compound 128] are 116%, 103% and 93%.
For 129 (MSYRAHTPKMLVMPFPY) [compound 129], the “Percent of Isoproterenol Control Activity” value in assay [1] was 115%. Further, the “Percent of Control Activity” value in assay [2] was found to be 110%; in assay [3], 90%.
